{"source": "patent US20250213700A1", "about": "“COMPOUNDS, COMPOSITIONS, AND METHODS FOR CELL-SPECIFIC PHARMACOLOGY” (Duke University, priority 2022, published 2025)", "biological_target": "T1, HTP in D1 cells of left dorsal striatum (Rhodococcus rhodochrous, UniProt P0A3G2, A155T/A167V/A172T/A224E/C128F/C176G/D78G/E160K/E257K/H272N/K175M/K195N/L47V/L88M/N227D/S58T/T264A/Y273L/Y87F)", "T1 construct": "SSnlg signal peptide (residues 1-49 of mouse neuroligin-1) (N); Thy1 GPI anchor signal (C); expressed in transfected cells; host or cells: mouse neurons transduced in vivo with AAV-DIO-+HTPGPI (D1-Cre dorsal striatum; PV::cre retinal ganglion cells)", "T1 sequence (P0A3G2 other isoform, or with tags, fused parts or gaps with the stated changes)": "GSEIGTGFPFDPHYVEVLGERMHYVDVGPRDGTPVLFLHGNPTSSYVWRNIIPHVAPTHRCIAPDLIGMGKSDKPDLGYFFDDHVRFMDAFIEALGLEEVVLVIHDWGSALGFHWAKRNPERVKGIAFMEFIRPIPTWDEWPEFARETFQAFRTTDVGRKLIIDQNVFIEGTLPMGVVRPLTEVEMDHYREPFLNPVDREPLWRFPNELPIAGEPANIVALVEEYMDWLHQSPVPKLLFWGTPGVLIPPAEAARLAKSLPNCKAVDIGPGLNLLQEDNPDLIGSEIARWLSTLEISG", "experiment": "histology of tracer dye capture in dorsal striatum", "format": "in vivo, mouse", "details": "3 µM dye+30 µM drug, histology 24 hr later", "description": "FIG. 3A-3F show quantitative engagement of the DART.2 platform. (FIG. 3A) Mice with ^+HTP or ^ddHTP in D1 cells of left dorsal striatum. Open field (1 hr) before and after Alexa488.1^DART.2+YM90K.1^DART.2 (3 µM dye+30 µM drug, 1 μL in 10 min). Histology performed 24 hr later. Left, dTomato expression and Alexa488.1^DART.2 capture from a ^+HTP mouse. […] Right, open-field turning vs dye capture. […] Dye capture can be used as a behavior-independent inclusion criterion (shading), allowing exclusion of 4 ^+HTP mice in this dataset. (FIG. 3B) Older technology lacked tracer^DART. Here, an estimate of technical success with a non-DART dye (fluorogold) was attempted and a numerical algorithm dye-virus overlap was estimated. […] (FIG. 3C and FIG. 3D) Characterization in live mice expressing HTP in dSPNs of the left dorsal striatum. Alexa^DART.2 co-infused with YM90^KDART.2 ligand provided permanent marker of drug capture, tight correspondence between histology and behavioral potency, and 3-fold increase in behavioral potency in comparison to its predecessor. (FIG. 3E and FIG. 3F) YM90^KDART.1 in live mice for comparison with above.\nHistology. […] Images were analyzed for pixel intensity using MATLAB.\nThese advances were combined in a mouse locomotor assay. […] Mice were perfused for histology 24 hrs later, and quantitative measurement of the integrated Alexa capture over the dorsal striatum was performed. […]"}
{"smiles": "COc1cc(CCCCl)ccc1CCOCCNC(=O)c1ccc(CNC(=O)CCOCCOCCOCCOCCOCCOCCOCCOCCOCCOCCOCCOCCOCCOCCOCCOCCOCCOCCOCCOCCOCCOCCOCCOCCOCCOCCOCCOCCOCCOCCOCCOCCOCCOCCOCCOCCn2cc(CNC(=O)c3ccc(-c4c5ccc(=N)c(S(=O)(=O)O)c-5oc5c(S(=O)(=O)O)c(N)ccc45)c(C(=O)O)c3)nn2)cc1", "note": "[Alexa488.1^DART.2, 6-amino-9-(2-carboxy-4-(((1-(1-(4-((2-(4-(3-chloropropyl)-2-methoxyphenethoxy)ethyl)carbamoyl)phenyl)-3-oxo-6,9, 12, 15, 18, 21, 24, 27, 30, 33, 36, 39, 42, 45, 48, 51, 54, 57, 60, 63, 66, 69, 72, 75, 78, 81, 84, 87, 90, 93, 96, 99, 102, 105, 108, 111-hexatriacontaoxa-2-azatridecahectan-113-yl)-1H-1,2,3-triazol-4-yl)methyl)carbamoyl)phenyl)-3-iminio-5-sulfo-3H-xanthene-4-sulfonate]", "values": [{"measurement": "dye capture, ddHTP mice", "result": "No dye capture detected"}]}
